# Results from patent US20150105252A1, “SUBSTITUTED PYRAZOLES AS HERBICIDES” (E I DU PONT DE NEMOURS AND COMPANY, priority 2013, published 2015).
# What was measured:
# wheat [1] = experiment: Test A preemergence; format: in vivo, Triticum aestivum; details: Preemergence, 1000 g ai/ha; 0 to 100 scale, 0 no effect, 100 complete control
# Outline: (§1)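 Visual injury rating, 0–100 (0 no effect, 100 complete control), vs untreated controls ~10 days after treatment in greenhouse. Pre: directed soil spray on seeded loam/sand. Post: 2–10 cm plants, 1–2 leaf stage. Formulation: non-phytotoxic solvent mix + surfactant.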
# morningglory [2] = experiment: Test A postemergence; format: in vivo, Ipomoea spp.; details: Postemergence, 1000 g ai/ha; visual rating after approx. 10 days, 0 to 100 scale (0 no effect, 100 complete control)
# Outline: as §1
# barnyardgrass [3] = experiment: Test A preemergence; format: in vivo, Echinochloa crus-galli; details: Preemergence, 1000 g ai/ha; 0 to 100 scale, 0 no effect, 100 complete control
# Outline: as §1
# ducksalad = experiment: Test C flooded paddy test; format: in vivo, Heteranthera limosa; details: Flood
# Description: (§2) At time of treatment, test pots were flooded to 3 cm above the soil surface, treated by application of test compounds directly to the paddy water, and then maintained at that water depth for the duration of the test. Treated plants and controls were maintained in a greenhouse for 13 to 15 days, after which time all species were compared to controls and visually evaluated. […] A dash (-) response means no test result.
# barnyardgrass [4] = experiment: Test C flooded paddy test; format: in vivo, Echinochloa crus-galli; details: Flood
# Outline: (§3)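 Pots were flooded to 3 cm above the soil surface at treatment, compound applied directly to the paddy water, and that depth held throughout. Plants were kept in a greenhouse for 13 to 15 days, then visually rated against untreated controls.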
# velvetleaf [5] = experiment: Test A preemergence; format: in vivo, Abutilon theophrasti; details: Preemergence, 1000 g ai/ha; 0 to 100 scale, 0 no effect, 100 complete control
# Outline: as §1
# crabgrass, large [6] = experiment: Test A postemergence; format: in vivo, Digitaria sanguinalis; details: Postemergence, 1000 g ai/ha; visual rating after approx. 10 days, 0 to 100 scale (0 no effect, 100 complete control)
# Outline: as §1
# velvetleaf [7] = experiment: Test A postemergence; format: in vivo, Abutilon theophrasti; details: Postemergence, 1000 g ai/ha; visual rating after approx. 10 days, 0 to 100 scale (0 no effect, 100 complete control)
# Outline: as §1
# foxtail, giant [8] = experiment: Test A postemergence; format: in vivo, Setaria faberii; details: Postemergence, 1000 g ai/ha; visual rating after approx. 10 days, 0 to 100 scale (0 no effect, 100 complete control)
# Outline: as §1
# foxtail, giant [9] = experiment: Test A preemergence; format: in vivo, Setaria faberii; details: Preemergence, 1000 g ai/ha; 0 to 100 scale, 0 no effect, 100 complete control
# Outline: as §1
# rice = experiment: Test C flooded paddy test; format: in vivo, Oryza sativa; details: Flood
# Description: as §2
# corn [10] = experiment: Test A preemergence; format: in vivo, Zea mays; details: Preemergence, 1000 g ai/ha; 0 to 100 scale, 0 no effect, 100 complete control
# Outline: as §1
# crabgrass, large [11] = experiment: Test A preemergence; format: in vivo, Digitaria sanguinalis; details: Preemergence, 1000 g ai/ha; 0 to 100 scale, 0 no effect, 100 complete control
# Outline: as §1
# pigweed [12] = experiment: Test A preemergence; format: in vivo, Amaranthus retroflexus; details: Preemergence, 1000 g ai/ha; 0 to 100 scale, 0 no effect, 100 complete control
# Outline: as §1
# morningglory [13] = experiment: Test A preemergence; format: in vivo, Ipomoea spp.; details: Preemergence, 1000 g ai/ha; 0 to 100 scale, 0 no effect, 100 complete control
# Outline: as §1
# corn [14] = experiment: Test A postemergence; format: in vivo, Zea mays; details: Postemergence, 1000 g ai/ha; visual rating after approx. 10 days, 0 to 100 scale (0 no effect, 100 complete control)
# Outline: as §1
# barnyardgrass [15] = experiment: Test A postemergence; format: in vivo, Echinochloa crus-galli; details: Postemergence, 1000 g ai/ha; visual rating after approx. 10 days, 0 to 100 scale (0 no effect, 100 complete control)
# Outline: as §1
# sedge, umbrella = experiment: Test C flooded paddy test; format: in vivo, Cyperus difformis; details: Flood
# Outline: as §3
# pigweed [16] = experiment: Test A postemergence; format: in vivo, Amaranthus retroflexus; details: Postemergence, 1000 g ai/ha; visual rating after approx. 10 days, 0 to 100 scale (0 no effect, 100 complete control)
# Outline: as §1
# wheat [17] = experiment: Test A postemergence; format: in vivo, Triticum aestivum; details: Postemergence, 1000 g ai/ha; visual rating after approx. 10 days, 0 to 100 scale (0 no effect, 100 complete control)
# Outline: as §1
# [18] = 31 g ai/ha, scale 0 to 100 (0 no effect, 100 complete control)
# [19] = 62 g ai/ha, scale 0 to 100 (0 no effect, 100 complete control)
SMILES,Wheat plant response rating (wheat [1]),Morningglory plant response rating (morningglory [2]),Barnyardgrass plant response rating (barnyardgrass [3]),"Plant response rating, Ducksalad (ducksalad; [18])","Plant response rating, Ducksalad (ducksalad; [19])","Plant response rating, Ducksalad (ducksalad; 125 g ai/ha, scale 0 to 100)","Plant response rating, Ducksalad (ducksalad; 250 g ai/ha, scale 0 to 100)","Plant response rating, Barnyardgrass (barnyardgrass [4]; [18])","Plant response rating, Barnyardgrass (barnyardgrass [4]; [19])","Plant response rating, Barnyardgrass (barnyardgrass [4]; 125 g ai/ha, scale 0 to 100)","Plant response rating, Barnyardgrass (barnyardgrass [4]; 250 g ai/ha, scale 0 to 100)",Velvetleaf plant response rating (velvetleaf [5]),"Crabgrass, Large plant response rating (crabgrass, large [6])",Velvetleaf plant response rating (velvetleaf [7]),"Foxtail, Giant plant response rating (foxtail, giant [8])","Foxtail, Giant plant response rating (foxtail, giant [9])","Plant response rating, Rice (rice; [18])","Plant response rating, Rice (rice; [19])","Plant response rating, Rice (rice; 125 g ai/ha, scale 0 to 100)","Plant response rating, Rice (rice; 250 g ai/ha, scale 0 to 100)",further results
CCCc1cc(C(=O)NCC(F)(F)F)nn1Cc1cccc(OC(F)(F)F)c1 [Compound 32],0,100,70,10,20,50,70,0,0,0,0,30,70,80,50,100,0,0,0,0,"Corn plant response rating (corn [10]): 0; Crabgrass, Large plant response rating (crabgrass, large [11]): 100; Pigweed plant response rating (pigweed [12]): 100; Morningglory plant response rating (morningglory [13]): 50; Corn plant response rating (corn [14]): 30; Barnyardgrass plant response rating (barnyardgrass [15]): 40; Plant response rating, Sedge, Umbrella (sedge, umbrella; [18]): 20; Plant response rating, Sedge, Umbrella (sedge, umbrella; [19]): 30; Plant response rating, Sedge, Umbrella (sedge, umbrella; 125 g ai/ha, scale 0 to 100): 50; Plant response rating, Sedge, Umbrella (sedge, umbrella; 250 g ai/ha, scale 0 to 100): 80; Pigweed plant response rating (pigweed [16]): 100; Wheat plant response rating (wheat [17]): 20"
CCCc1cc(C(=O)NCC)nn1Cc1cccc(OC(F)(F)F)c1 [Compound 33],10,100,40,0,10,20,80,0,0,0,0,40,80,80,70,90,0,0,0,0,"Corn plant response rating (corn [10]): 0; Crabgrass, Large plant response rating (crabgrass, large [11]): 100; Pigweed plant response rating (pigweed [12]): 90; Morningglory plant response rating (morningglory [13]): 40; Corn plant response rating (corn [14]): 20; Barnyardgrass plant response rating (barnyardgrass [15]): 30; Plant response rating, Sedge, Umbrella (sedge, umbrella; [18]): 10; Plant response rating, Sedge, Umbrella (sedge, umbrella; [19]): 30; Plant response rating, Sedge, Umbrella (sedge, umbrella; 125 g ai/ha, scale 0 to 100): 30; Plant response rating, Sedge, Umbrella (sedge, umbrella; 250 g ai/ha, scale 0 to 100): 85; Pigweed plant response rating (pigweed [16]): 80; Wheat plant response rating (wheat [17]): 20"
CCCc1cc(C(=O)NC2CC2)nn1Cc1cccc(OC(F)(F)F)c1 [Compound 34],20,100,60,0,10,30,80,0,0,0,20,30,90,100,90,100,0,0,0,10,"Corn plant response rating (corn [10]): 10; Crabgrass, Large plant response rating (crabgrass, large [11]): 100; Pigweed plant response rating (pigweed [12]): 80; Morningglory plant response rating (morningglory [13]): 60; Corn plant response rating (corn [14]): 40; Barnyardgrass plant response rating (barnyardgrass [15]): 50; Plant response rating, Sedge, Umbrella (sedge, umbrella; [18]): 0; Plant response rating, Sedge, Umbrella (sedge, umbrella; [19]): 10; Plant response rating, Sedge, Umbrella (sedge, umbrella; 125 g ai/ha, scale 0 to 100): 70; Plant response rating, Sedge, Umbrella (sedge, umbrella; 250 g ai/ha, scale 0 to 100): 80; Pigweed plant response rating (pigweed [16]): 100; Wheat plant response rating (wheat [17]): 30"
CCCNC(=O)c1cc(CCC)n(Cc2cccc(OC(F)(F)F)c2)n1 [Compound 35],0,100,70,0,20,20,60,0,0,10,10,50,70,100,40,100,0,0,0,0,"Corn plant response rating (corn [10]): 0; Crabgrass, Large plant response rating (crabgrass, large [11]): 100; Pigweed plant response rating (pigweed [12]): 90; Morningglory plant response rating (morningglory [13]): 50; Corn plant response rating (corn [14]): 20; Barnyardgrass plant response rating (barnyardgrass [15]): 30; Plant response rating, Sedge, Umbrella (sedge, umbrella; [18]): 20; Plant response rating, Sedge, Umbrella (sedge, umbrella; [19]): 30; Plant response rating, Sedge, Umbrella (sedge, umbrella; 125 g ai/ha, scale 0 to 100): 50; Plant response rating, Sedge, Umbrella (sedge, umbrella; 250 g ai/ha, scale 0 to 100): 80; Pigweed plant response rating (pigweed [16]): 90; Wheat plant response rating (wheat [17]): 20"
CCc1cc(C(=O)NCC2CC2)nn1Cc1cccc(OC(F)(F)F)c1 [Compound 53],0,90,40,0,0,0,40,0,0,0,15,30,50,80,50,90,0,0,10,30,"Corn plant response rating (corn [10]): 10; Crabgrass, Large plant response rating (crabgrass, large [11]): 100; Pigweed plant response rating (pigweed [12]): 100; Morningglory plant response rating (morningglory [13]): 40; Corn plant response rating (corn [14]): 40; Barnyardgrass plant response rating (barnyardgrass [15]): 40; Plant response rating, Sedge, Umbrella (sedge, umbrella; [18]): 0; Plant response rating, Sedge, Umbrella (sedge, umbrella; [19]): 0; Plant response rating, Sedge, Umbrella (sedge, umbrella; 125 g ai/ha, scale 0 to 100): 0; Plant response rating, Sedge, Umbrella (sedge, umbrella; 250 g ai/ha, scale 0 to 100): 80; Pigweed plant response rating (pigweed [16]): 80; Wheat plant response rating (wheat [17]): 30"
